Holding throughout (type): cell-based
Test [1] concerns iPS cells (201B7 strain). The test is described as follows: Effective concentration of RFV derivatives: iPS cell growth in medium refrigerated for 2 weeks. Set-up: key to cell growth: X; not grown; ◯; cell grown. Conditions: for storage stability of medium compared with RFV: any medium (Essential 8 or TeSR2 supplement), refrigerated 2 weeks. Here is the method: (§1) 201B7 strain purchased from iPS Academia Japan, Inc. was used as the iPS cell. Cell culture was performed using a culture vessel coated with Matrigel (Nippon Becton, Dickinson and Company: 354277) or iMatrix-511 (Nippi. Inc.: 892002) as an extracellular matrix under conditions of 5% CO2/37° C.
(§2) Modified DMEM/F-12 was mixed with each supplement of Essential 8 (Thermo Fisher SCIENTIFIC: A1517001), TeSR-E8 (STEMCELL Technologies: #05940), TeSR2 (STEMCELL Technologies: #05860) to prepare a complete medium. The medium was stored in a refrigerator with a glass door under non-light-shielding (fluorescent light irradiation time: 10 hr/day) and then used for culture, based on which the storage stability of the medium was studied.
The effectiveness of FAD and RTB, which are RFV derivatives, was studied, and the effective concentration ranges of FMN, FAD and RTB were studied. A complete medium was prepared using Modified DMEM/F-12 (FMN−) as the basal medium and Essential 8 or TeSR2 supplement as the supplement. RFV, FMN (Riboflavin 5′-Monophosphate Sodium Salt), FAD (Flavin Adenine Dinucleotide Disodium Salt Hydrate (Tokyo Chemical m Industry Co., Ltd., F0014, hereinafter the same)) and RTB (Riboflavin Tetrabutyrate, Wako Pure Chemical Industries, Ltd., 185-00861) were each added to the complete medium at a final concentration of 0.47 to 15.2 μM (concentration converted to free form anhydrate in the case of salt and/or hydrate). A medium supplemented with Fe^2+ and Zn^2+ at 100 mol % was also prepared.
Each medium was refrigerated under non-light-shielding for 2 weeks and then the proliferation ability of iPS cells was studied. A 12-well plate coated with Matrigel was prepared, 10,000 cells per well were seeded in a single cell state. On the day when the cells were seeded, the evaluation was performed using the medium prepared above. The culture period was set to 7 days, and the cell confluency was measured using IncuCyte Zoom on day 7 from the start of the culture. At the time of seeding, a medium supplemented with Y-27632 at a final concentration of 10 μM was used. In the evaluation from the following day, the cells were cultured in a medium not supplemented with Y-27632.
To study the effective concentration range of FAD, which is an RFV derivative, the unperformed part of Example 5 was evaluated. A complete medium was prepared using Modified DMEM/F-12 (FMN−) as the basal medium and TeSR2 supplement as the supplement. FAD (Flavin Adenine Dinucleotide Disodium Salt Hydrate) was added to the complete medium at a final concentration of 0.47 to 15.2 μM. A medium supplemented with Fe^2+ and Zn^2+ at 100 mol % was prepared.

Test [2] has as its system iPS cells (201B7 strain). The test is described as follows: Influence of Fe, Zn, RFV on storage stability of medium (iPS cell confluency). Conditions: Essential 8 supplement; for contribution to lowering of storage stability of the medium: 100 vs 25 mol % in Modified DMEM/F-12 with FMN 20 mol %, refrigerated 2 weeks. Here is the method:
as §1, §2
To what extent Fe^2+, Zn^2+ and RFV contribute to the storage stability of the medium was studied. Complete media were respectively prepared by adding each component to Modified DMEM/F-12 (FMN−) (Table 5). Each medium was refrigerated under non-light-shielding for 0 and 2 weeks and then the proliferation ability of iPS cells was studied.
A 12-well plate coated with Matrigel was prepared, 10,000 cells per well were seeded in a single cell state. On the day when the cells were seeded, the evaluation was performed using the medium prepared above. The culture period was set to 7 days, and the cell confluency was measured using IncuCyte Zoom on day 7 from the start of the culture. At the time of seeding, a medium supplemented with Y-27632 at a final concentration of 10 μM was used. In the evaluation from the following day, the cells were cultured in a medium not supplemented with Y-27632.

Test [3] relates to iPS cells (201B7 strain). In words: Effectiveness of RFV during iPS cell culture (cell confluency, day 7). Conditions: Modified DMEM/F-12 (FMN-) + Essential 8 supplement, RFV 0.00-0.176 mg/L, Fe2+ and Zn2+ 25 or 100 mol %, Matrigel.
Description: 201B7 strain purchased from iPS Academia Japan, Inc. was used as the iPS cell. Cell culture was performed using a culture vessel coated with Matrigel (Nippon Becton, Dickinson and Company: 354277) or iMatrix-511 (Nippi. Inc.: 892002) as an extracellular matrix under conditions of 5% CO2/37° C. Whether RFV is an essential component during iPS cell culture was studied. A complete medium was prepared by mixing the basal medium (Solution A: Modified DMEM/F-12 (FMN−)) and Essential 8 supplement (Solution B). Media were prepared by adding RFV to the complete medium to final concentrations of 0.00, 0.0176, 0.044, 0.088, 0.176 mg/L (No. 1 to No. 5 in Table 3). Along therewith, to grasp the influence of the reduced mineral components, media supplemented with Fe^2+ and Zn^2+ at 100 mol % were also prepared (No. 6 to No. 10 in Table 3). After preparing the medium, a 12-well plate coated with Matrigel was prepared, and 10,000 cells per well were seeded in a single cell state. On the day when the cells were seeded, the evaluation was performed using the medium prepared above. The culture period was set to 7 days, and the cell confluency was measured as an index of cell proliferation using IncuCyte Zoom (Essen Bioscience) on day 7 from the start of the culture. […]
Setting [4] is: 0.47 μM (80 mol % vs DMEM/F-12), Fe2+ and Zn2+ 25 mol %, Essential 8 supplement, medium refrigerated 2 weeks.
The mark [5] stands for this setting: 0.47 μM (80 mol % vs DMEM/F-12), Fe2+ and Zn2+ 25 mol %, TeSR2 supplement, medium refrigerated 2 weeks.
The mark [6] stands for this setting: 0.47 μM (80 mol % vs DMEM/F-12), Fe2+ and Zn2+ 100 mol %, Essential 8 supplement, medium refrigerated 2 weeks.
[7] abbreviates: 0.47 μM (80 mol % vs DMEM/F-12), Fe2+ and Zn2+ 100 mol %, TeSR2 supplement, medium refrigerated 2 weeks, Example 5.
The mark [8] stands for this setting: 1.52 μM (259 mol % vs DMEM/F-12), Fe2+ and Zn2+ 25 mol %, Essential 8 supplement, medium refrigerated 2 weeks.
Setting [9] is: 1.52 μM (259 mol % vs DMEM/F-12), Fe2+ and Zn2+ 100 mol %, Essential 8 supplement, medium refrigerated 2 weeks.
The mark [10] stands for this setting: 2.57 μM (437 mol % vs DMEM/F-12), Fe2+ and Zn2+ 25 mol %, TeSR2 supplement, medium refrigerated 2 weeks.
The mark [11] stands for this setting: 15.2 μM (2587 mol % vs DMEM/F-12), Fe2+ and Zn2+ 25 mol %, TeSR2 supplement, medium refrigerated 2 weeks.
Where [12] appears, read: 15.2 μM (2587 mol % vs DMEM/F-12), Fe2+ and Zn2+ 100 mol %, TeSR2 supplement, medium refrigerated 2 weeks, Example 5.
Where [13] appears, read: 2.57 μM (437 mol % vs DMEM/F-12), Fe2+ and Zn2+ 100 mol %, TeSR2 supplement, medium refrigerated 2 weeks, Example 5.

Where a name gives a salt, the structure may show the parent alone.

Data on six molecules can be found in patent publication US12312605B2, “Riboflavin derivative-containing medium” (AJINOMOTO CO., INC., priority 2017, dated 2025).

`Cc1cc2nc3c(=O)[nH]c(=O)nc-3n(C[C@H](O)[C@H](O)[C@H](O)COP(=O)(O)OP(=O)(O)OC[C@H]3O[C@@H](n4cnc5c(N)ncnc54)[C@H](O)[C@@H]3O)c2cc1C` [FAD, Flavin Adenine Dinucleotide Disodium Salt Hydrate]: the cell growth result with iPS cells (201B7 strain) [1] (setting [4]) is reported as “◯”; in the test with iPS cells (201B7 strain) [1] (setting [5]), “◯”; in the test with iPS cells (201B7 strain) [1] (setting [6]), “◯”; with iPS cells (201B7 strain) [1] (setting [7]) it was “◯”; in the test on iPS cells (201B7 strain) [1] (0.47 μM (80 mol % vs DMEM/F-12), Fe2+ and Zn2+ 100 mol %, TeSR2 supplement, medium refrigerated 2 weeks, Example 6), “◯”; in the test with iPS cells (201B7 strain) [1] (setting [8]), “◯”. Also, the cell growth entry with iPS cells (201B7 strain) [1] (setting [9]) was “X”; with iPS cells (201B7 strain) [1] (setting [10]), “◯”; with iPS cells (201B7 strain) [1] (2.57 μM (437 mol % vs DMEM/F-12), Fe2+ and Zn2+ 100 mol %, TeSR2 supplement, medium refrigerated 2 weeks, Example 6) it was “◯”; in the test with iPS cells (201B7 strain) [1] (setting [11]) it was “◯”; in the test on iPS cells (201B7 strain) [1] (setting [12]), “X”; with iPS cells (201B7 strain) [1] (15.2 μM (2587 mol % vs DMEM/F-12), Fe2+ and Zn2+ 100 mol %, TeSR2 supplement, medium refrigerated 2 weeks, Example 6) it was “X”. In addition, the “concentration at which culturing was possible (comparison)” value with iPS cells (201B7 strain) [1] (Essential 8 or TeSR2 supplement, medium refrigerated 2 weeks) is “higher for FAD than FMN and RTB”. Further, in the test with iPS cells (201B7 strain) [1], the “storage stability of medium compared with RFV” value is recorded as “higher storage stability than that of RFV”.
As to `CCCC(=O)OC[C@@H](OC(=O)CCC)[C@@H](OC(=O)CCC)[C@H](Cn1c2nc(=O)[nH]c(=O)c-2nc2cc(C)c(C)cc21)OC(=O)CCC` [RTB, Riboflavin Tetrabutyrate], the cell growth result with iPS cells (201B7 strain) [1] (setting [4]) was “◯”; in the test with iPS cells (201B7 strain) [1] (setting [5]), “◯”; with iPS cells (201B7 strain) [1] (setting [6]) it was “◯”; with iPS cells (201B7 strain) [1] (setting [7]), “◯”; in the test with iPS cells (201B7 strain) [1] (setting [8]) it was “X”; in the test with iPS cells (201B7 strain) [1] (setting [9]), “X”. The cell growth entry in the test with iPS cells (201B7 strain) [1] (setting [10]), in the test on iPS cells (201B7 strain) [1] (setting [13]), with iPS cells (201B7 strain) [1] (setting [11]) and in the test on iPS cells (201B7 strain) [1] (setting [12]) was “X” throughout. In the test on iPS cells (201B7 strain) [1], the “storage stability of medium compared with RFV” value was “higher storage stability than that of RFV”.
With `O.O.O.O.O.O.O.O=S(=O)([O-])[O-].[Fe+2]` [Fe^2+, iron (II) sulfate heptahydrate], the “contribution to lowering of storage stability of the medium” value in the test with iPS cells (201B7 strain) [2] is reported as “do not contribute to lowering of storage stability”.
Take `Cc1cc2nc3c(=O)[nH]c(=O)nc-3n(C[C@H](O)[C@H](O)[C@H](O)CO)c2cc1C` [RFV, riboflavin]: the “cell growth after storage of medium” value in the test with iPS cells (201B7 strain) [2] (medium refrigerated non-light-shielded 2 weeks, Matrigel, day 7) is “cells could not grow after storage for 2 weeks”. Further, the cell growth entry was “X” with iPS cells (201B7 strain) [1] (setting [4]); “◯” with iPS cells (201B7 strain) [1] (setting [5]); “X” with iPS cells (201B7 strain) [1] (setting [6]); “◯” with iPS cells (201B7 strain) [1] (setting [7]); “X” in the test on iPS cells (201B7 strain) [1] (setting [8]); “X” with iPS cells (201B7 strain) [1] (setting [9]). The cell growth result in the test on iPS cells (201B7 strain) [1] (setting [10]), in the test with iPS cells (201B7 strain) [1] (setting [13]), in the test on iPS cells (201B7 strain) [1] (setting [11]) and in the test on iPS cells (201B7 strain) [1] (setting [12]) was “X” in each case. In addition, in the test on iPS cells (201B7 strain) [3], the “effectiveness of RFV during iPS cell culture (cell confluency)” value was “essential for cell culture”.
`O.O.O.O.O.O.O.O=S(=O)([O-])[O-].[Zn+2]` [Zn^2+, zinc sulfate heptahydrate]: the “contribution to lowering of storage stability of the medium” value in the test with iPS cells (201B7 strain) [2] is “do not contribute to lowering of storage stability”.
`Cc1cc2nc3c(=O)[nH]c(=O)nc-3n(C[C@H](O)[C@H](O)[C@H](O)COP(=O)(O)O)c2cc1C` [FMN, Riboflavin 5′-Monophosphate Sodium Salt]: the cell growth result in the test on iPS cells (201B7 strain) [1] (setting [4]) is “◯”; in the test with iPS cells (201B7 strain) [1] (setting [5]) it was “◯”; in the test on iPS cells (201B7 strain) [1] (setting [6]), “◯”; in the test on iPS cells (201B7 strain) [1] (setting [7]) it was “◯”; with iPS cells (201B7 strain) [1] (setting [8]) it was “X”; with iPS cells (201B7 strain) [1] (setting [9]) it was “X”. For the same molecule, the cell growth entry with iPS cells (201B7 strain) [1] (setting [10]) is listed as “◯”; in the test with iPS cells (201B7 strain) [1] (setting [13]), “X”; in the test with iPS cells (201B7 strain) [1] (setting [11]), “X”; with iPS cells (201B7 strain) [1] (setting [12]) it was “X”. Besides, the “storage stability of medium compared with RFV” value in the test on iPS cells (201B7 strain) [1] is recorded as “higher storage stability than that of RFV”.
